Results taken from ChEMBL document CHEMBL1135132, “Synthesis of more potent analogues of the acetylcholinesterase inhibitor, huperzine B” (Bioorg Med Chem Lett, 2002).

Target: T1, Acetylcholinesterase (Bos taurus, UniProt P23795)
T1 sequence (P23795 whole entry): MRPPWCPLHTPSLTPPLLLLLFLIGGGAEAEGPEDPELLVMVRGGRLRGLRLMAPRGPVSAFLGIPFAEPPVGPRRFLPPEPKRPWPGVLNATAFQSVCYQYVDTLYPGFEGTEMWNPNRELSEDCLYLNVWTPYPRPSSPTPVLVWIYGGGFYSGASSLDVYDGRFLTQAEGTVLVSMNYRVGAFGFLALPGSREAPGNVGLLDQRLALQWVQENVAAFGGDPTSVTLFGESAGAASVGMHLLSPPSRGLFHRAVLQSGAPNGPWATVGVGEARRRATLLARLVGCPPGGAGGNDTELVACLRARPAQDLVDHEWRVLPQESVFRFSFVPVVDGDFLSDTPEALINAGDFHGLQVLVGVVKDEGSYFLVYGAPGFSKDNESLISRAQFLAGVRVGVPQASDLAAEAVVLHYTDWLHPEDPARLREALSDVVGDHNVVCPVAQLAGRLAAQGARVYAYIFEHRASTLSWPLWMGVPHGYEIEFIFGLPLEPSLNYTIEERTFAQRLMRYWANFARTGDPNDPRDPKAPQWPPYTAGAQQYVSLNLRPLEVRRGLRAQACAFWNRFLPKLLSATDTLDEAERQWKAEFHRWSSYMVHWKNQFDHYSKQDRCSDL
Assay: Inhibitory constant against fetal bovine serum (FBS) acetylcholinesterase

In the case of CC1=CC2Cc3[nH]c(=O)ccc3C3(C1)NCCC(C)=C23 (stereo not given), the Ki is reported as 2050 nM.

CCC1=C2C3C=C(C)CC2(NC1)c1ccc(O)nc1C3 (stereo not given) showed a Ki of 400 nM.

Work on CC1=CC2Cc3nc(O)ccc3C3(C1)NCC(C)=C23 (stereo not given) yielded a Ki of 220 nM.

Compound C/C=C1\[C@H]2C=C(C)C[C@]1(N)c1ccc(=O)[nH]c1C2 [HUPERZINE A] has a Ki of 24 nM.

CC1=C[C@H]2Cc3[nH]c(=O)ccc3[C@]3(C1)NCCC[C@H]23 [HUPERZINE B] was tested, and the Ki was 794 nM.
